In patent publication US9000016B2, “1,3,4-Oxadiazoles-2-thio derivatives as sphingosine-1 phosphate receptors modulators” (Allergan, Inc., priority 2012, dated 2015):
pEC50: −log10 of the molar value.

Biological target: T1, human S1P1 receptor (Homo sapiens, UniProt P21453)
T1 construct: expressed in transfected cells; membranes used
Experiment: GTP γ35S binding assay for S1P1 activity
Format: biochemical
Details: membranes of cells stably expressing the S1P1 receptor, agonist potency
Experimental: Compounds were synthesized and tested for S1P1 activity using the GTP γ^35S binding assay. These compounds may be assessed for their ability to activate or block activation of the human S1P1 receptor in cells stably expressing the S1P1 receptor.
GTP y^35S binding was measured in the medium containing (mM) HEPES 25, pH 7.4, MgCl210, NaCI 100, dithiothreitol 0.5, digitonin 0.003%, 0.2 nM GTP y^35S, and 5 µg membrane protein in a volume of 150 μl. Test compounds were included in the concentration range from 0.08 to 5,000 nM unless indicated otherwise. Membranes were incubated with 100 μM 5′-adenylylimidodiphosphate for 30 min, and subsequently with 10 μM GDP for 10 min on ice. Drug solutions and membrane were mixed, and then reactions were initiated by adding GTP y^35S and continued for 30 min at 25° C. Reaction mixtures were filtered over Whatman GF/B filters under vacuum, and washed three times with 3 mL of ice-cold buffer (HEPES 25, pH7.4, MgCl210 and NaCI 100). Filters were dried and mixed with scintillant, and counted for ^35S activity using a β-counter. Agonist-induced GTP y^35S binding was obtained by subtracting that in the absence of agonist. Binding data were analyzed using a non-linear regression method. In case of antagonist assay, the reaction mixture contained 10 nM S1 P1 in the presence of test antagonist at concentrations ranging from 0.08 to 5000 nM.

T1 sequence (P21453 whole entry): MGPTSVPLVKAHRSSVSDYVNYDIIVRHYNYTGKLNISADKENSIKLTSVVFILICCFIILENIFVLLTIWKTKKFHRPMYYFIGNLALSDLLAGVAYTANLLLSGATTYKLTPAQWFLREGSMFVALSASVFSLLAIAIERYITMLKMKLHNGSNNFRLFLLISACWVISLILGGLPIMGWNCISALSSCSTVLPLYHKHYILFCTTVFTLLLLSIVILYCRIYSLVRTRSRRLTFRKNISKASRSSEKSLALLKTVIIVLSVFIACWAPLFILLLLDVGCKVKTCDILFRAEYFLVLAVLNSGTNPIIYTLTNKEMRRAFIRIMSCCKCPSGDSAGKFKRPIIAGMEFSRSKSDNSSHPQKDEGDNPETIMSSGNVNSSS

pEC50 | SMILES
7.09 | Cc1ccc(-c2nnc(SC(C)c3ccc(CNCCCP(=O)(O)O)cc3)o2)cc1C (centres unmarked) [Compound 1, (3-{[4-(1-{[5-(3,4-Dimethylphenyl)-1,3,4-oxadiazol-2-yl]thio}ethyl)benzyl]amino}propyl)phosphonic acid]
8.08 | Cc1ccc(-c2nnc(SC(C)c3ccc(CNCCC(=O)O)cc3)o2)cc1C (centres unmarked) [Compound 3, 3-{[4-(1-{[5-(3,4-Dimethylphenyl)-1,3,4-oxadiazol-2-yl]thio}ethyl)benzyl]amino}propanoic acid]
